Experimental data: PMC3933948 (Bioorganic & medicinal chemistry, 2013)
Like-named read-outs stand apart in the source and are kept apart here.

Tests used:
MCF-7 cells = assay: Estrogen-dependent MCF-7 growth inhibition; type: cell-based, human; details: estrogen-dependent MCF-7 cells
[1] = target: T1, recombinant human aromatase (CYP19) (Homo sapiens, UniProt P11511); assay: Fluorescence-based aromatase activity assay; type: biochemical; details: for fold increase in aromatase inhibitory potency vs precursor 1e: compared with 3-(pyridin-3-yl)chroman-4-one 1e; for aromatase inhibition (in words): enzymatic assay
T1 sequence (P11511 1-503): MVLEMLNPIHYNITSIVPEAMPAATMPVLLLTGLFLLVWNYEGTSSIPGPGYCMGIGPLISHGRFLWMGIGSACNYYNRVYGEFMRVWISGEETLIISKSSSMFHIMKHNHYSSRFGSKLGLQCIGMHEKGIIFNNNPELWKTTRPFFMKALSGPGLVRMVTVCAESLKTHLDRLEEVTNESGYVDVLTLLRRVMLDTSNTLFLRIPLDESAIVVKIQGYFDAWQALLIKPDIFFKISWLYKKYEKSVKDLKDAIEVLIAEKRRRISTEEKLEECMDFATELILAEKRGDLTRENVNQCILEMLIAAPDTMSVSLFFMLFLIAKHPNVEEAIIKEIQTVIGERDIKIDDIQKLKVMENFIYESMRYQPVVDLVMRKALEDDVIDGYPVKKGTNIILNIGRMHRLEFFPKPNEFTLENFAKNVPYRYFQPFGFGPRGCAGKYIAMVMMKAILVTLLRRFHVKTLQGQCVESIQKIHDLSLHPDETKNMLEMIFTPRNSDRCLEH

[2] = system: non-estrogen dependent MCF-7 cells; assay: Growth inhibition of non-estrogen dependent MCF-7 cells; type: cell-based, human; details: MCF-7 cells raised without estrogen
[3] = target: T1, recombinant human aromatase (CYP19); details: AI previously synthesized in the authors' lab ref 9; cited from earlier work

| aromatase inhibition (in words) [1] | Structure (SMILES) | anti-proliferative activity on MCF-7 (in words) (MCF-7 cells) | fold increase in aromatase inhibitory potency vs precursor 1e [1] | further results |
| --- | --- | --- | --- | --- |
|  | O=C1c2cc(F)ccc2OCC1c1cccnc1 (stereo not shown) [3e, 6-Fluoro-3-(pyridin-3-yl)chroman-4-one] | inactive | 7 fold | fold increase in aromatase inhibitory potency vs parent 1a ([1]; compared with parent molecule 1a): 36 fold |
|  | COc1ccc2c(c1)C(=O)C(c1cccnc1)CO2 (stereo not shown) [3c, 6-methoxy-3-(pyridin-3-yl)chroman-4-one] | inactive | more than 2 fold | growth inhibition (in words) [2]: no growth inhibition was observed |
| No significant inhibition | O=C1c2c(ccc3ccccc23)OCC1c1ccc(Oc2ccccc2)cc1 (stereo not shown) [3a, 2-(4-Phenoxyphenyl)-2,3-dihydro-1H-benzo[f]chromen-1-one] |  |  |  |
| No significant inhibition | COc1ccc2c(c1)C(=O)C(c1ccc(Oc3ccccc3)cc1)CO2 (stereo not shown) [3b, 6-Methoxy-3-(4-phenoxyphenyl)chroman-4-one] |  |  |  |
|  | O=C1c2ccccc2OCC1c1ccc(-c2ccccc2)cc1 (stereo not shown) [1c, 3-(biphenyl-4-yl)chroman-4-one] | did not show anti-cancer cell activity |  | aromatase inhibition (in words) [3]: inactive |
